The results in this text go back to article PMC9696494, “Garcixanthone E and Garcimangophenone C: New Metabolites from Garcinia mangostana and Their Cytotoxic and Alpha Amylase Inhibitory Potential” (Life, 2022).

The structures appear in SMILES notation.

The IC50 is the concentration that inhibits the measured activity by half. Low readings indicate higher potency, high ones lower potency.

In the assay the target is T1, α-amylase.
T1 construct: gene AMY2A
Briefly: EnzChek Ultra Amylase assay kit, enzyme inhibition. The assay is classed as biochemical.

With `COc1cc2oc3cc(O)c(/C=C/C(C)(C)O)c(O)c3c(=O)c2c(CC=C(C)C)c1OC` [compound 1, 1,3-dihyroxy-6,7-dimethoxy-2-(3-hydroxy-3-methylbut-1-enyl)-8-(3-methylbut-2-enyl)-xanthone], half-maximal inhibition (IC50) required 17.8 µM.

Regarding `C[C@@H]1O[C@@H](Oc2cc(O)cc(O)c2C(=O)c2cccc(O)c2)[C@H](O)[C@H](O)[C@H]1O` [compound 9, garcimangophenone C], the half-inhibitory concentration (IC50) was determined as 12.9 µM.
